According to ChEMBL document CHEMBL1201862, “PubChem BioAssay data set” (2004):
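Interpolation was linear, between the two tested concentrations surrounding the appropriate level; five concentrations were tested over 48 hours in 96-well plates. At the GI50, growth is halved.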 Active and inactive are the calls of the source. No stated cut-off is given here; in the data, active = GI50 up to about 1.1 µM and inactive = higher.

Experiments:
Assay in all cases: inhibition of tumour cell growth, NCI panel, 48 h
[1] = tested on: A549
[2] = tested on: COLO 205
[3] = tested on: HOP-62
[4] = tested on: IGROV-1
[5] = tested on: KM12
[6] = tested on: MOLT-4
[7] = tested on: Malme-3M
[8] = tested on: NCI-H23
[9] = tested on: OVCAR-3
[10] = tested on: OVCAR-4
[11] = tested on: PC-3
[12] = tested on: SF-268
[13] = tested on: SF-295
[14] = tested on: SF-539
[15] = tested on: SK-OV-3
[16] = tested on: SN12C
[17] = tested on: SNB-19
[18] = tested on: TK-10
[19] = tested on: UACC-257
[20] = tested on: UO-31

Structure (SMILES)	GI50 [1]	GI50 [2]	GI50 [3]	GI50 [4]	GI50 [5]	GI50 [6]	GI50 [7]	GI50 [8]	GI50 [9]	GI50 [10]	GI50 [11]	GI50 [12]	GI50 [13]	GI50 [14]	GI50 [15]	GI50 [16]	GI50 [17]	GI50 [18]	GI50 [19]	GI50 [20]
C=CCOC1=C(OC(C)=O)C(C2COC(C)(C)O2)OC1=O (configuration not stated)	24 µM (inactive)	20 µM (inactive)	> 100 µM (inactive)	31.6 µM (inactive)	20.7 µM (inactive)	21.6 µM (inactive)	18.8 µM (inactive)	17.8 µM (inactive)	17.9 µM (inactive)	21.5 µM (inactive)	70 µM (inactive)	31.6 µM (inactive)	36 µM (inactive)	33.2 µM (inactive)	> 100 µM (inactive)	24.5 µM (inactive)	> 100 µM (inactive)	29.7 µM (inactive)	18.2 µM (inactive)	18.6 µM (inactive)
O=C(c1ccco1)C1CC(c2ccc3ccccc3c2O)=NN1 (configuration not stated)	47 µM (inactive)	66.1 µM (inactive)	> 100 µM (inactive)	> 100 µM (inactive)	> 100 µM (inactive)	36.7 µM (inactive)	> 100 µM (inactive)	> 100 µM (inactive)	57.3 µM (inactive)	> 100 µM (inactive)	70.8 µM (inactive)	> 100 µM (inactive)	55.8 µM (inactive)	> 100 µM (inactive)	> 100 µM (inactive)	> 100 µM (inactive)	–	> 100 µM (inactive)	62.2 µM (inactive)	89.7 µM (inactive)
CCCCCC[C@H]1C(=O)O[C@H](C)[C@H](NC(=O)c2cccc(NC=O)c2OC)C(=O)O[C@@H](C)[C@@H]1OC(=O)C(C)CC.CCCCCC[C@H]1C(=O)O[C@H](C)[C@H](NC(=O)c2cccc(NC=O)c2OC)C(=O)O[C@@H](C)[C@@H]1OC(=O)CC(C)C (some centres not stated)	5.9 µM (inactive)	7.62 µM (inactive)	> 100 µM (inactive)	–	18.8 µM (inactive)	6.65 µM (inactive)	> 100 µM (inactive)	8.49 µM (inactive)	6.71 µM (inactive)	5.41 µM (inactive)	6.28 µM (inactive)	26.1 µM (inactive)	14.5 µM (inactive)	29.3 µM (inactive)	15.3 µM (inactive)	29.6 µM (inactive)	–	16 µM (inactive)	3.96 µM (inactive)	46.8 µM (inactive)
Clc1ccc(-c2nn3c(-c4ccncc4)nnc3s2)cc1	> 100 µM (inactive)	> 100 µM (inactive)	20.8 µM (inactive)	64.4 µM (inactive)	> 100 µM (inactive)	> 100 µM (inactive)	> 100 µM (inactive)	> 100 µM (inactive)	> 100 µM (inactive)	> 100 µM (inactive)	> 100 µM (inactive)	37.4 µM (inactive)	62.1 µM (inactive)	> 100 µM (inactive)	40.1 µM (inactive)	> 100 µM (inactive)	59.2 µM (inactive)	> 100 µM (inactive)	> 100 µM (inactive)	> 100 µM (inactive)
O=c1c2c(F)c(F)c(F)c(F)c2sc2nccn12	19.5 µM (inactive)	17.6 µM (inactive)	22.4 µM (inactive)	17.4 µM (inactive)	17.1 µM (inactive)	3.01 µM (inactive)	17.3 µM (inactive)	15.5 µM (inactive)	14.4 µM (inactive)	19.5 µM (inactive)	18.4 µM (inactive)	18 µM (inactive)	17.9 µM (inactive)	17.5 µM (inactive)	18.9 µM (inactive)	18.5 µM (inactive)	19.8 µM (inactive)	18.4 µM (inactive)	13 µM (inactive)	–
OCC1OC(n2nc(-c3ccccc3)nc2-c2cnccn2)C(O)C(O)C1O (configuration not stated)	> 100 µM (inactive)	> 100 µM (inactive)	> 100 µM (inactive)	> 100 µM (inactive)	> 100 µM (inactive)	> 100 µM (inactive)	–	> 100 µM (inactive)	> 100 µM (inactive)	> 100 µM (inactive)	> 100 µM (inactive)	–	> 100 µM (inactive)	> 100 µM (inactive)	> 100 µM (inactive)	> 100 µM (inactive)	> 100 µM (inactive)	–	> 100 µM (inactive)	> 100 µM (inactive)
CC1=NN(c2nc(N)nc(CSCc3nc(N)nc(N(C)C)n3)n2)C(C)(C)C1	> 100 µM (inactive)	> 100 µM (inactive)	> 100 µM (inactive)	> 100 µM (inactive)	> 100 µM (inactive)	> 100 µM (inactive)	–	> 100 µM (inactive)	> 100 µM (inactive)	> 100 µM (inactive)	> 100 µM (inactive)	> 100 µM (inactive)	> 100 µM (inactive)	> 100 µM (inactive)	> 100 µM (inactive)	> 100 µM (inactive)	> 100 µM (inactive)	> 100 µM (inactive)	> 100 µM (inactive)	> 100 µM (inactive)
NNC(=O)c1ccc(OCc2nc3ccccc3[nH]2)cc1	> 100 µM (inactive)	71.4 µM (inactive)	–	> 100 µM (inactive)	> 100 µM (inactive)	14.8 µM (inactive)	> 100 µM (inactive)	> 100 µM (inactive)	43.5 µM (inactive)	> 100 µM (inactive)	> 100 µM (inactive)	89.3 µM (inactive)	> 100 µM (inactive)	> 100 µM (inactive)	> 100 µM (inactive)	> 100 µM (inactive)	> 100 µM (inactive)	> 100 µM (inactive)	66.4 µM (inactive)	48.5 µM (inactive)
CCCCNC(=O)Nc1c(C(N)=O)c2n(c1C(=O)OCC)CCCCC2	–	> 100 µM (inactive)	> 100 µM (inactive)	> 100 µM (inactive)	> 100 µM (inactive)	> 100 µM (inactive)	–	> 100 µM (inactive)	–	> 100 µM (inactive)	> 100 µM (inactive)	> 100 µM (inactive)	> 100 µM (inactive)	> 100 µM (inactive)	> 100 µM (inactive)	–	> 100 µM (inactive)	> 100 µM (inactive)	> 100 µM (inactive)	> 100 µM (inactive)
CSc1nc(-c2ccc(C)cc2)c(C#N)c(=O)[nH]1	> 100 µM (inactive)	> 100 µM (inactive)	> 100 µM (inactive)	> 100 µM (inactive)	> 100 µM (inactive)	> 100 µM (inactive)	–	> 100 µM (inactive)	> 100 µM (inactive)	> 100 µM (inactive)	> 100 µM (inactive)	> 100 µM (inactive)	> 100 µM (inactive)	> 100 µM (inactive)	> 100 µM (inactive)	> 100 µM (inactive)	> 100 µM (inactive)	> 100 µM (inactive)	> 100 µM (inactive)	52 µM (inactive)
Brc1cccc(C2(CCCC3(c4cccc(Br)n4)OCCO3)OCCO2)n1	> 100 µM (inactive)	> 100 µM (inactive)	> 100 µM (inactive)	> 100 µM (inactive)	> 100 µM (inactive)	> 100 µM (inactive)	–	> 100 µM (inactive)	> 100 µM (inactive)	> 100 µM (inactive)	> 100 µM (inactive)	21.2 µM (inactive)	68.7 µM (inactive)	39.2 µM (inactive)	> 100 µM (inactive)	> 100 µM (inactive)	> 100 µM (inactive)	> 100 µM (inactive)	> 100 µM (inactive)	> 100 µM (inactive)
CC(C)CNC(=O)Cn1c2c(c3ccccc31)CCCC2	49.7 µM (inactive)	73.8 µM (inactive)	54.3 µM (inactive)	14.9 µM (inactive)	–	0.743 µM (active)	82.4 µM (inactive)	> 100 µM (inactive)	39 µM (inactive)	35.4 µM (inactive)	58.5 µM (inactive)	37.5 µM (inactive)	35.8 µM (inactive)	> 100 µM (inactive)	23.7 µM (inactive)	> 100 µM (inactive)	85.3 µM (inactive)	35.8 µM (inactive)	> 100 µM (inactive)	28.3 µM (inactive)
Cn1nc(-c2ccc(S(=O)(=O)N/C(=N/c3ccc(Cl)cc3)NN)s2)cc1C(F)(F)F	15 µM (inactive)	17.1 µM (inactive)	16.5 µM (inactive)	19.3 µM (inactive)	16.6 µM (inactive)	4.06 µM (inactive)	–	20.3 µM (inactive)	19.7 µM (inactive)	15.9 µM (inactive)	16.9 µM (inactive)	17.7 µM (inactive)	16.2 µM (inactive)	13.5 µM (inactive)	20.9 µM (inactive)	15.3 µM (inactive)	16.5 µM (inactive)	19.1 µM (inactive)	19.5 µM (inactive)	14.6 µM (inactive)
Fc1c(F)c(F)c2c(c1F)CSc1nc3ccccc3n1-2	> 100 µM (inactive)	> 100 µM (inactive)	> 100 µM (inactive)	> 100 µM (inactive)	> 100 µM (inactive)	> 100 µM (inactive)	> 100 µM (inactive)	> 100 µM (inactive)	> 100 µM (inactive)	> 100 µM (inactive)	> 100 µM (inactive)	> 100 µM (inactive)	> 100 µM (inactive)	> 100 µM (inactive)	> 100 µM (inactive)	> 100 µM (inactive)	> 100 µM (inactive)	> 100 µM (inactive)	> 100 µM (inactive)	–
